# Results published in publication PMC10917278, “Structural insights into the modulation Of SOD1 aggregation By a fungal metabolite Phialomustin-B: Therapeutic potential in ALS” (PLOS ONE, 2024).
# Biological target: T1, SOD1^A4V (Homo sapiens, UniProt P00441, A5V)
# T1 construct: The full-length constructs of SOD1-wild type (aa: 1–145) and its corresponding SOD1 disease mutant, SOD1^A4V; His-tag (cleaved yes); made in house; host or cells: E. coli BL21 DE3
# Test: Analytical size-exclusion chromatography (SEC) aggregation assay, SOD1^A4V
# Format: biochemical
# Method: Fig 6 Aggregation studies of metallated and reduced SOD1^WT and SOD1^A4V on treatment with PB. ThT fluorescence was monitored during the co-incubation of metallated SOD1^WT (50 μM) (a) or SOD1^A4V (50 μM) (b) with PB at 1:30 molar ratio at 37 °C with continuous shaking, under reduced conditions. The values were normalized to the maximal ThT intensity elicited by SOD1^WT or SOD1^A4V and fitted to a Boltzmann sigmoidal equation. The control and PB-treated species were compared to analyse the effects of PB on the aggregation of SOD1^WT and SOD1^A4V. Error bars indicate the standard deviation. Analytical SEC of metallated SOD1^WT (50 μM) (c) and SOD1^A4V (50 μM) (d) with PB were analyzed under reducing conditions before and after 24 hrs and 48 hrs incubation at 37 °C. The first peak eluting at the volume was denoted as oligomerized SOD1^WT/SOD1^A4V (L). The second, third, and fourth peaks were calculated as trimer (T), dimer (D), and monomer (M) species of SOD1^WT/SOD1^A4V running at 14.5 ml, 15.7 ml, and 16.5 ml, respectively. […]
# Fig 7 Aggregation studies of de-metallated and reduced SOD1^WT and SOD1^A4V on treatment with PB. ThT fluorescence was monitored during the co-incubation of de-metallated SOD1^WT (50 μM) (a) or SOD1^A4V (50 μM) (b) with PB at 1:30 molar ratio at 37 °C with continuous shaking, under reduced conditions. […] Analytical SEC of de-metallated SOD1^WT (50 μM) (a) and SOD1^A4V (50 μM) (b) with PB were analysed under reducing conditions before and after 24 hrs and 48 hrs incubation at 37 °C. […] The second, third, and fourth peaks were calculated as trimer (T), dimer (D), and monomer (M) species of SOD1^WT/SOD1^A4V running at 14.5 ml, 15.7 ml, and 16.5 ml, respectively. […]
# The anti-aggregation activity of PB was validated on the SOD1^WT and the disease mutant (SOD1^A4V) through size exclusion chromatography. The analytical size-exclusion chromatography is a gold standard method for comprehensively evaluating protein species through their molecular weight variations detected by the protein peaks’ elution volume (Ve). […]
# T1 sequence (P00441 whole entry A5V): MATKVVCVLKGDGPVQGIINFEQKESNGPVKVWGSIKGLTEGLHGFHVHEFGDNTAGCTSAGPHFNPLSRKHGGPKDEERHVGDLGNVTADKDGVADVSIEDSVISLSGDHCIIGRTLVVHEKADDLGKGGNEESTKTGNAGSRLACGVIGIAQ
smiles,measurement,setting,value
"CCCC[C@H](C)/C=C(C)/C=C/C(=O)O [PB, (S, 2E, 4E)-4,6-dimethyldeca-2,4-dienoic acid]",trimer population (SEC),"De-metallated (EDTA) SOD1^A4V 50 μM, PB 30X, reducing conditions",reduces the trimer population
same,trimer populations (SEC),"Metallated SOD1^A4V 50 μM, PB 60X, reducing conditions",trimer populations were significantly reduced
same,formation of toxic trimer species (SEC),"Metallated SOD1^A4V 50 μM, PB at a ratio of 1:30, reducing conditions",visibly reduced the formation of toxic trimer species
